From PubChem BioAssay (NCI)
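Protocol summary: plate cells (96-well), add compound at 5 concentrations, incubate 48 h, interpolate endpoints linearly. TGI: concentration producing complete growth inhibition.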

System: RXF 393 renal
Test: inhibition of tumour cell growth, NCI panel, 48 h

Compound | TGI
O=CN(O)CC(=O)O | > 100 µM
COc1ccc(CN2C(=O)C(=O)N(C)C2=O)c2ccccc12 | > 10 µM
OCC1OC(O[C@H]2CN3[C@H](O)[C@@H](O)[C@H](O)[C@H]3C2O)C(O)C(O)C1O (some centres not stated) | > 100 µM
CC1OC(n2cc(F)c(=O)[nH]c2=O)C(O[Si](C)(C)C(C)(C)C)C1O[Si](C)(C)C(C)(C)C (configuration not stated) | 29.5 µM
O=S1(=O)c2ccccc2NC(=S)N1c1ccccc1 | > 100 µM
COC(=O)C(CCSC)NC(=O)CSc1nnc(COc2ccc(Cl)cc2)n1-c1ccccc1 (configuration not stated) | 35.4 µM
Cc1ccc(-n2cc(-c3ccc(Cl)cc3)c3c2N=CN2NC(c4ccco4)=NC32)cc1 (configuration not stated) | 30.7 µM
COn1cc(CO)c2ccccc21 | 47.8 µM
COc1cc2nc(-c3c(F)cccc3F)n(Cc3c(F)cccc3F)c2cc1Cc1c(F)cccc1F | > 28.9 µM
O=C(/C=C1\C[C@H]2C=Nc3ccccc3C(=O)N2C1)NCCCCCNC(=O)/C=C1\C[C@H]2C=Nc3ccccc3C(=O)N2C1 | 11.6 µM
CC[P+](C#Cc1ccccc1)(c1ccccc1)c1ccccc1 | 4.39 µM
Cc1ccc(C(=O)c2[nH]c(Nc3cc(C)ccn3)c(C(=S)Nc3ccccc3)c2N)cc1 | > 100 µM
CC(C)Cc1c(C#N)c(C#N)c(N)n1Cc1ccccc1 | > 100 µM
CC1=NC(C)(C)N(O)C1(C)C | > 100 µM
Clc1cccc(C2ON=C(c3ccccc3)N2C23CC4CC(CC(C4)C2)C3)c1Cl (configuration not stated) | > 10 µM
CNc1ccc2c(c1)Cc1ccccc1-2 | > 100 µM
CCN(CC(=O)O)CC(=O)O | > 100 µM
O=c1cc(-c2ccccc2F)[nH]c2cc3c(cc12)OCO3 | > 100 µM
CC(C)(C)c1ccc2c(c1)OCc1n[nH]c(n1)COc1cc(C(C)(C)C)ccc1OCCOCCO2 | 4.56 µM
COC1OC2COC(C)(C)OC2C2OC(C)(C)OC12 (configuration not stated) | > 100 µM
O=C(NCCCNCCCCNCCCNC(=O)C(F)(F)F)C(F)(F)F | > 100 µM
O=C(O)c1cc2ccccc2c(S(=O)(=O)O)c1O | > 100 µM
COC(=O)c1sc2ncc3c(c2c1N)CC(C)CC3 (configuration not stated) | > 100 µM
Cc1cccc(NC(Nc2cccc(C)c2)=C(C(Cl)=C(Cl)Cl)[N+](=O)[O-])c1 | 22.8 µM
COC(=O)C1=C(C(=O)OC)C2(C)CCC(=O)C1O2 (configuration not stated) | > 10 µM

System: SF-295 CNS
Test: inhibition of tumour cell growth, NCI panel, 48 h

Compound | TGI
O=CN(O)CC(=O)O | > 100 µM
COc1ccc(CN2C(=O)C(=O)N(C)C2=O)c2ccccc12 | > 10 µM
OCC1OC(O[C@H]2CN3[C@H](O)[C@@H](O)[C@H](O)[C@H]3C2O)C(O)C(O)C1O (some centres not stated) | > 100 µM
CC1OC(n2cc(F)c(=O)[nH]c2=O)C(O[Si](C)(C)C(C)(C)C)C1O[Si](C)(C)C(C)(C)C (configuration not stated) | 27.1 µM
O=S1(=O)c2ccccc2NC(=S)N1c1ccccc1 | > 100 µM
COC(=O)C(CCSC)NC(=O)CSc1nnc(COc2ccc(Cl)cc2)n1-c1ccccc1 (configuration not stated) | 32.3 µM
Cc1ccc(-n2cc(-c3ccc(Cl)cc3)c3c2N=CN2NC(c4ccco4)=NC32)cc1 (configuration not stated) | 27.8 µM
COn1cc(CO)c2ccccc21 | > 100 µM
COc1cc2nc(-c3c(F)cccc3F)n(Cc3c(F)cccc3F)c2cc1Cc1c(F)cccc1F | > 100 µM
O=C(/C=C1\C[C@H]2C=Nc3ccccc3C(=O)N2C1)NCCCCCNC(=O)/C=C1\C[C@H]2C=Nc3ccccc3C(=O)N2C1 | 33 µM
CC[P+](C#Cc1ccccc1)(c1ccccc1)c1ccccc1 | 21.1 µM
Cc1ccc(C(=O)c2[nH]c(Nc3cc(C)ccn3)c(C(=S)Nc3ccccc3)c2N)cc1 | > 100 µM
CC(C)Cc1c(C#N)c(C#N)c(N)n1Cc1ccccc1 | > 100 µM
CC1=NC(C)(C)N(O)C1(C)C | > 100 µM
Clc1cccc(C2ON=C(c3ccccc3)N2C23CC4CC(CC(C4)C2)C3)c1Cl (configuration not stated) | > 10 µM
CNc1ccc2c(c1)Cc1ccccc1-2 | > 100 µM
CCN(CC(=O)O)CC(=O)O | > 100 µM
O=c1cc(-c2ccccc2F)[nH]c2cc3c(cc12)OCO3 | 9.84 µM
CC(C)(C)c1ccc2c(c1)OCc1n[nH]c(n1)COc1cc(C(C)(C)C)ccc1OCCOCCO2 | 12.5 µM
COC1OC2COC(C)(C)OC2C2OC(C)(C)OC12 (configuration not stated) | > 100 µM
O=C(NCCCNCCCCNCCCNC(=O)C(F)(F)F)C(F)(F)F | > 100 µM
O=C(O)c1cc2ccccc2c(S(=O)(=O)O)c1O | > 100 µM
COC(=O)c1sc2ncc3c(c2c1N)CC(C)CC3 (configuration not stated) | > 100 µM
Cc1cccc(NC(Nc2cccc(C)c2)=C(C(Cl)=C(Cl)Cl)[N+](=O)[O-])c1 | > 66.8 µM
COC(=O)C1=C(C(=O)OC)C2(C)CCC(=O)C1O2 (configuration not stated) | > 10 µM

System: SK-MEL-2 melanoma
Test: inhibition of tumour cell growth, NCI panel, 48 h

Compound | TGI
O=CN(O)CC(=O)O | > 100 µM
COc1ccc(CN2C(=O)C(=O)N(C)C2=O)c2ccccc12 | > 10 µM
OCC1OC(O[C@H]2CN3[C@H](O)[C@@H](O)[C@H](O)[C@H]3C2O)C(O)C(O)C1O (some centres not stated) | > 100 µM
CC1OC(n2cc(F)c(=O)[nH]c2=O)C(O[Si](C)(C)C(C)(C)C)C1O[Si](C)(C)C(C)(C)C (configuration not stated) | 35.5 µM
O=S1(=O)c2ccccc2NC(=S)N1c1ccccc1 | > 100 µM
COC(=O)C(CCSC)NC(=O)CSc1nnc(COc2ccc(Cl)cc2)n1-c1ccccc1 (configuration not stated) | 30.6 µM
Cc1ccc(-n2cc(-c3ccc(Cl)cc3)c3c2N=CN2NC(c4ccco4)=NC32)cc1 (configuration not stated) | 27.5 µM
COn1cc(CO)c2ccccc21 | > 100 µM
COc1cc2nc(-c3c(F)cccc3F)n(Cc3c(F)cccc3F)c2cc1Cc1c(F)cccc1F | > 82.2 µM
O=C(/C=C1\C[C@H]2C=Nc3ccccc3C(=O)N2C1)NCCCCCNC(=O)/C=C1\C[C@H]2C=Nc3ccccc3C(=O)N2C1 | 29.2 µM
CC[P+](C#Cc1ccccc1)(c1ccccc1)c1ccccc1 | 4.3 µM
Cc1ccc(C(=O)c2[nH]c(Nc3cc(C)ccn3)c(C(=S)Nc3ccccc3)c2N)cc1 | > 100 µM
